Measured values as given in PMC8689208, “Structure of a monomeric photosystem II core complex from a cyanobacterium acclimated to far-red light reveals the functions of chlorophylls d and f” (The Journal of Biological Chemistry, 2021).

Molecular target: T1, apo-FRL-PSII (reaction centre PsbA3/PsbD3 sites) (Synechococcus sp. PCC 7335, UniProt B4WKI3+Z9EN74SDD1)
T1 construct: native monomeric core complex from FRL-acclimated cells, ~226 kDa modelled; His6 tag at C-terminus of PsbC2; lacks OEC, extrinsic subunits and PsbH2 in map; PsbF2 assignment tentative; one unknown helix; with Photosystem II CP47 reaction center protein; Photosystem II CP43 reaction center protein; Cytochrome b559 subunit alpha; Cytochrome b559 subunit beta; Photosystem II reaction center protein I; Photosystem II reaction center protein K
Test: cryo-EM structure, […] Å
Assay type: binding
Settings: QA site; QB absent

CC(C)=CCC/C(C)=C/CC/C(C)=C/CC/C(C)=C/CC/C(C)=C/CC/C(C)=C/CC/C(C)=C/CC/C(C)=C/CC/C(C)=C/CC1=CC(=O)C(C)=C(C)C1=O [plastoquinone]
cryo-EM structure, 2.25 Å: one heme b, one plastoquinone, one NH-Fe ion
